Results: ChEMBL document CHEMBL1134156, “Design, synthesis and preliminary evaluation of novel 3'-substituted carboxycyclopropylglycines as antagonists at group 2 metabotropic glutamate receptors” (Bioorg Med Chem Lett, 2001)
Where “and” joins values, the source holds several entries; their conditions need not be identical. Equal entries are not always repeated.

Key:
[1] = Hill coefficient was determined
[2] = Effect of compound on GluR mediated phosphoinositol metabolisim at conc of 50 uM of GluR1b; type: functional
[3] = Effect of compound on GluR mediated phosphoinositol metabolisim at conc of 10 uM of mGluR5a; type: functional
[4] = biological target: Metabotropic glutamate receptor 2 (Homo sapiens, UniProt Q14416); experiment: Antagonistic activity against stimulation of GTP (gamma) 35 S binding by glutamate in membranes from CHO cells expressing human Metabotropic glutamate receptor 2; type: cell membranes
[5] = Effect of compound on GluR mediated phosphoinositol metabolisim at conc of 50 uM of mGluR5a; type: functional
[6] = biological target: Metabotropic glutamate receptor 3 (Rattus norvegicus, UniProt P31422); experiment: Compound was evaluated for the inhibition of binding of [3H]glutamate against rat recombinant Metabotropic glutamate receptor 3 expressed in HEK293 cells; type: cell-based
[7] = Effect of compound on GluR mediated phosphoinositol metabolisim at conc of 10 uM of GluR1b; type: functional

Sequence of Metabotropic glutamate receptor 2 (Q14416 whole entry): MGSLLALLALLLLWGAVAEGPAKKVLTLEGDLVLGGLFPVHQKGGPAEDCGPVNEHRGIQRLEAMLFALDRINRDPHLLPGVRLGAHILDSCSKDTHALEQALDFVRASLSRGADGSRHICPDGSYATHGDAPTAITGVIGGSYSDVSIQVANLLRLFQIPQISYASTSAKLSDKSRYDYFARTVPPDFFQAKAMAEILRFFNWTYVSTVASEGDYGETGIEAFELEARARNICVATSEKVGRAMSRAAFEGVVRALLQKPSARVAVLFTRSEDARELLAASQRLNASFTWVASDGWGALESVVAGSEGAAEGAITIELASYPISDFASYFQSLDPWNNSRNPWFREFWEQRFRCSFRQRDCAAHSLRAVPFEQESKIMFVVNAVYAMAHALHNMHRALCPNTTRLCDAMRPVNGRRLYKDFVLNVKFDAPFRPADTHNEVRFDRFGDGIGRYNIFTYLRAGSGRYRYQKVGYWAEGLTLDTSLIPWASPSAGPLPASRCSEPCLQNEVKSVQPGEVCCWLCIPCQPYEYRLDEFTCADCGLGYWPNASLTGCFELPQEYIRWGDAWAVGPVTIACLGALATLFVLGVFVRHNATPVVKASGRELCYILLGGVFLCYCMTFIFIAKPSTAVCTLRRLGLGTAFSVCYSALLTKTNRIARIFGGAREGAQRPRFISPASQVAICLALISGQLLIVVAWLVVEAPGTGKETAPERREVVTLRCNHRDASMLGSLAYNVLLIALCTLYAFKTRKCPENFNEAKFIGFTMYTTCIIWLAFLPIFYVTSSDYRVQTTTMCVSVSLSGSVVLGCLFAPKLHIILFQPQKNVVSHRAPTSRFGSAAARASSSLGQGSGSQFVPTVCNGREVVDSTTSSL
Sequence of Metabotropic glutamate receptor 3 (P31422 whole entry): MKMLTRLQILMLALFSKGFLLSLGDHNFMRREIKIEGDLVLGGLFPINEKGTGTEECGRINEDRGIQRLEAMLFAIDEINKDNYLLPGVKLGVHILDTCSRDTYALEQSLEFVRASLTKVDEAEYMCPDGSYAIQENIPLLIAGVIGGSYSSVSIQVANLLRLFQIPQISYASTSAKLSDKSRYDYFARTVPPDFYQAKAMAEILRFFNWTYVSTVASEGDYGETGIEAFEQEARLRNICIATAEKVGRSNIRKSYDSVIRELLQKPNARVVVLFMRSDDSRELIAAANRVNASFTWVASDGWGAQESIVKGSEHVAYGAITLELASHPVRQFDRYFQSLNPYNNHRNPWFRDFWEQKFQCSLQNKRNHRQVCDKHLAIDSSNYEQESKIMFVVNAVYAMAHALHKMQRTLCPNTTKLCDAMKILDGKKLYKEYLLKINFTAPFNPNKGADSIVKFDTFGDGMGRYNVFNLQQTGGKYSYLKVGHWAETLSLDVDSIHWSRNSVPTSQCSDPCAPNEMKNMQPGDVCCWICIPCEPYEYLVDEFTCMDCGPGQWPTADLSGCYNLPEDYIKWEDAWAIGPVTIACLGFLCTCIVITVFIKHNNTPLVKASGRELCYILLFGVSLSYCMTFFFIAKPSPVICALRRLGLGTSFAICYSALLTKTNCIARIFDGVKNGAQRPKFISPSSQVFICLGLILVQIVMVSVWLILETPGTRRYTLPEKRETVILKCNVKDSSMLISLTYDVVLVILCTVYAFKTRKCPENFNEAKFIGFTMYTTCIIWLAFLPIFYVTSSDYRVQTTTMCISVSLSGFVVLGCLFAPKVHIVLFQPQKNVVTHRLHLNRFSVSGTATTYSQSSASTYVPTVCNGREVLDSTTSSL

SMILES	Hill coefficient [1]	Activity [2] [%]	Activity [3] [%]	Ki [4] [nM]	Activity [5] [%]	IC50 [6] [nM]	Activity [7] [%]	IC50 [4] [nM]
NC(C(=O)O)[C@H]1[C@@H](CC2c3ccccc3Oc3ccccc32)[C@@H]1C(=O)O (stereo not given in full)	0.93 and 0.78	95	101	2700	94	1300	131	–
NC(C(=O)O)[C@H]1[C@@H](CCC2c3ccccc3Oc3ccccc32)[C@@H]1C(=O)O (stereo not given in full)	0.92 and 1.09	111	103	85	91	75	110	200
